# Counter-ions that a name gives are not always drawn. Like-named read-outs stand apart in the source and are kept apart here.
# Assays:
# Rats [1] = experiment: Acute toxicity after ingestion by rats; format: in vivo; conditions: rats and mice (Table 1)
# Text: A comparison of the acute toxicity of the isomers and the metabolite endosulfan sulfate after ingestion by rats and mice is shown in Table 1. […] Most studies investigating the chronic toxicity of endosulfan in mammals have not differentiated between the isomers. An exception is the neurotoxic action of endosulfan that has been attributed to the alpha-isomer.
# [2] = test system: Musca domestica (house fly); conditions: topical application in acetone, cited from earlier work
# Helicoverpa zea = conditions: topical application in acetone; Walfenbarger and Guerra, 1972; cited from earlier work
# Heliothis virescens = conditions: topical application in acetone; Walfenbarger and Guerra, 1972; cited from earlier work
# [3] = test system: GABA-gated chloride channel; conditions: Abalis et al., 1985, 1986; Gant et al., 1987; cited from earlier work
# Rats [4] = conditions: ingestion, Goebel et al., 1982; cited from earlier work
# Mice = conditions: ingestion, Dorough et al., 1978; cited from earlier work
# [5] = Singh et al., 1991, cited from earlier work
SMILES,acute toxicity relative to the beta-isomer (Rats [1]),"LD50 ([2]; Barnes and Ware, 1965) [µg/g]","LD50 ([2]; Lindquist and Dahm, 1957) [μg · fly^−1]",LD50 (Helicoverpa zea) [µg/g],LD50 (Heliothis virescens),potency at inhibiting GABA-induced chloride flux relative to the beta-isomer [3],LD50 (Rats [4]) [mg/kg],LD50 (Mice) [mg/kg],susceptibility to photolysis relative to the alpha-isomer [5],vulnerability to chemical hydrolysis relative to the alpha-isomer ([5]; neutral and alkali pH)
O=S1OC[C@@H]2[C@H](CO1)[C@@]1(Cl)C(Cl)=C(Cl)[C@]2(Cl)C1(Cl)Cl (stereo partly drawn) [alpha-endosulfan],approximately four fold higher,5.5,0.14,630,high*,much more potent,76,11,–,–
O=S1OC[C@@H]2[C@H](CO1)[C@]1(Cl)C(Cl)=C(Cl)[C@]2(Cl)C1(Cl)Cl (stereo partly drawn) [beta-endosulfan],–,9.0,0.19,4140,4960 µg/g,–,240,36,over twice as susceptible,approximately 25%
O=S1(=O)OCC2C(CO1)C1(Cl)C(Cl)=C(Cl)C2(Cl)C1(Cl)Cl (stereo not shown) [endosulfan sulfate],approximately four fold higher,9.5,–,820,high*,–,76,8,–,–
